Entries after “also recorded” stand apart in the source; their conditions may differ.
Assays:
[1] = test system: MDA, a lipid peroxidation product; experiment: MDA concentration by liquid chromatography in serum, eye and hippocampus of diabetic mice; format: in vivo
Experimental: (§1) Male albino mice were used throughout the study, housed in a environmentally regulated room on a dark-light cycle of 12 hours with free access to food and water. Principles of laboratory animal care (NIH publication no. 85-23, revised 1985) were followed, as well as specific Spanish regulations. Animals were made diabetic with a single subcutaneous injection of 200 mg alloxan/kg body weight (66 mg/ml) in 0.1 M citrate buffer, pH 4.5, at day 0 of the experiment. Control mice were injected with the same volume of vehicle also at day 0 of the experiment.
Mice were identified as diabetic on the basis of blood glucose levels (higher than 16 mM at least 4 days after alloxan treatment). Animals were divided into subgroups as required by the experiment (control, control+lutein, diabetic, diabetic+lutein, diabetic+insulin, diabetic+insulin+lutein). […] Insulin treated animals were injected daily with 500 mU/g body weight since day 4 until the end of the experiment. Mice were killed by cervical dislocation on day 14, and hippocampus and retina were removed and homogenized in pre-chilled 0.2 M potassium phosphate buffer, pH 7.0. These homogenates were used to assay protein, GPx activity and MDA and GSH concentrations. Samples were kept frozen (−80° C.) until biochemical assays were performed. Blood was taken from the tail vein daily to assay blood glucose levels. Glycated hemoglobin was determined in blood samples obtained by heart puncture immediately before killing the animals.
MDA, a lipid peroxidation product, concentration was measured by liquid chromatography according to a modification of the method of Richard et al. (1992) as previously described (Romero et al., 1998). Briefly, 0.1 ml of sample (or standard solutions prepared daily from 1,1,3,3-tetramethoxypropane) and 0.75 ml of working solution (thiobarbituric acid 0.37% and perchloric acid 6.4%; 2/1, v/v) were mixed and heated to 95° C. for 1 h. After cooling (10 min in ice water bath), the flocculent precipitate was removed by centrifugation at 3,200×g for 10 min. The supernatant was neutralized and filtered (0.22 μm) prior to injection on an ODS column 5 μm column (250×4.6 mm). Mobile phase consisted in 50 mM phosphate buffer (pH 6.0): methanol (58:42, v/v). Isocratic separation was performed with 1.0 ml/min flow (HPLC System 325, Kontron) and detection at 532 nm (UV/VIS HPLC Detector 332, Kontron). Calibration curves were run daily.

GPx activity = GPx activity in eye and hippocampus homogenate of diabetic mice; format: in vivo
Experimental: (§2) Male albino mice were used throughout the study, housed in a environmentally regulated room on a dark-light cycle of 12 hours with free access to food and water. Principles of laboratory animal care (NIH publication no. 85-23, revised 1985) were followed, as well as specific Spanish regulations. Animals were made diabetic with a single subcutaneous injection of 200 mg alloxan/kg body weight (66 mg/ml) in 0.1 M citrate buffer, pH 4.5, at day 0 of the experiment. Control mice were injected with the same volume of vehicle also at day 0 of the experiment. Mice were identified as diabetic on the basis of blood glucose levels (higher than 16 mM at least 4 days after alloxan treatment). Animals were divided into subgroups as required by the experiment (control, control+lutein, diabetic, diabetic+lutein, diabetic+insulin, diabetic+insulin+lutein). […] Insulin treated animals were injected daily with 500 mU/g body weight since day 4 until the end of the experiment. Mice were killed by cervical dislocation on day 14, and hippocampus and retina were removed and homogenized in pre-chilled 0.2 M potassium phosphate buffer, pH 7.0. These homogenates were used to assay protein, GPx activity and MDA and GSH concentrations. Samples were kept frozen (−80° C.) until biochemical assays were performed. Blood was taken from the tail vein daily to assay blood glucose levels. Glycated hemoglobin was determined in blood samples obtained by heart puncture immediately before killing the animals. GPx activity was assayed as reported by Lawrence et al. (1978) towards hydrogen peroxide. The disappearance of NADPH was followed spectrophotometrically at 340 nm. The reaction mixture consisted of 240 mU/ml of glutathione disulfide reductase, 1 mM GSH, 0.15 mM NADPH in 0.1 M potassium phosphate buffer, pH 7.0, containing 1 mM EDTA and 1 mM sodium azide; 50 μl sample were added to this mixture and allowed to equilibrate at 37° C. for 3 min. reaction was started by the addition of 1.5 mM hydrogen peroxide to adjust the final volume of the assay mixture to 1 ml.

GSH = GSH content in hippocampus homogenate of diabetic mice; format: in vivo; conditions: lutein 0.2 mg/kg p.o. or insulin 500 mU/g s.c. on days 4-13
Experimental: as §1
Mice were identified as diabetic on the basis of blood glucose levels (higher than 16 mM at least 4 days after alloxan treatment). Animals were divided into subgroups as required by the experiment (control, control+lutein, diabetic, diabetic+lutein, diabetic+insulin, diabetic+insulin+lutein). Lutein was administered daily at a dose of 0.2 mg/kg p.o since day 4 after alloxan or citrate buffer injection until the end of the experiment. […] Glycated hemoglobin was determined in blood samples obtained by heart puncture immediately before killing the animals.
The GSH content of eye homogenate was quatitated by the method of Reed et al. (Reed et al., 1980). […] These products are quickly separated by HPLC which allows the quantification of nanomolars levels of GSH.

alloxan diabetic mice = experiment: Electroretinogram (ERG) amplitude in diabetic mice; format: in vivo; conditions: lutein 100 mg/kg p.o. or insulin 500 mU/g s.c. on days 4-13
Experimental: as §2, with “Samples were kept frozen (−80° C.) until biochemical assays were performed. Blood was taken from the tail vein daily to assay blood glucose levels.” left out, “animals.” for “animals. GPx activity was assayed as reported by Lawrence et al. (1978) towards hydrogen peroxide. The disappearance of NADPH was followed spectrophotometrically at 340 nm. The reaction mixture consisted of 240 mU/ml of glutathione disulfide reductase, 1 mM GSH, 0.15 mM NADPH in 0.1 M potassium phosphate buffer, pH 7.0, containing 1 mM EDTA and 1 mM sodium azide; 50 μl sample were added to this mixture and allowed to equilibrate at 37° C. for 3 min. reaction was started by the addition of 1.5 mM hydrogen peroxide to adjust the final volume of the assay mixture to 1 ml.”

diabetic rodents = conditions: insulin treatment from the onset of diabetes, Biessels et al 1998; cited from earlier work
diabetic rats = conditions: Lupien et al. (2003); cited from earlier work
diabetic mouse brain = conditions: diabetic mice killed 20 days after streptozotocin administration; Saravia et al. 2004; cited from earlier work
[2] = lutein 100 mg/kg p.o. or insulin 500 mU/g body weight s.c. on days 4-13

For insulin [reference compound], the “MDA levels in hippocampus” value ([1]; lutein 0.2 mg/kg p.o. or insulin 500 mU/g body weight s.c. on days 4-13) was “restored; also recorded: able to prevent this effect”, the “MDA levels in ocular tissue” value [1, 2] was “restored; also recorded: able to prevent this effect” and the “MDA levels in serum” value [1, 2] was “restored”. The “retinal GPx activity” value (GPx activity; eye homogenate without lens, lutein 100 mg/kg p.o. or insulin 500 mU/g s.c. on days 4-13) was “partially reversed”, the “GPx activity in hippocampus homogenate” value (GPx activity; lutein 0.2 mg/kg p.o. or insulin 500 mU/g s.c. on days 4-13) was “restored” and the “GSH content in hippocampus homogenate” value (GSH) was “restored”. For the same molecule, the “ERG amplitude (mostly b-wave)” value (alloxan diabetic mice) was “partially reversed” and the “learning impairment in Morris water maze” value (diabetic rodents) was “can prevent this learning impairment”.
For IGF-I, the “cognition-related performance in the water maze” value (diabetic rats) is listed as “prevent loss of cognition-related performance”.
For `C[C@]12CC[C@@H]3c4ccc(O)cc4CC[C@H]3[C@@H]1CC[C@@H]2O` [17beta-oestradiol], the brain cell proliferation (diabetic mouse brain) is given as “restored”.

Reference: patent publication US20060205826A1, “Method of using carotenoids in the prevention of cognitive decline and for other neuroprotection functions” (priority 2005, published 2006)
